Experimental findings from ChEMBL document CHEMBL2203217, “Prohormone-substrate peptide sequence recognition by peptidylglycine α-amidating monooxygenase and its reflection in increased glycolate inhibitor potency” (Bioorg Med Chem Lett, 2012) are described below.

Test [1] deals with T1, Peptidyl-glycine alpha-amidating monooxygenase (Homo sapiens, UniProt P19021).
T1 sequence (P19021 whole entry): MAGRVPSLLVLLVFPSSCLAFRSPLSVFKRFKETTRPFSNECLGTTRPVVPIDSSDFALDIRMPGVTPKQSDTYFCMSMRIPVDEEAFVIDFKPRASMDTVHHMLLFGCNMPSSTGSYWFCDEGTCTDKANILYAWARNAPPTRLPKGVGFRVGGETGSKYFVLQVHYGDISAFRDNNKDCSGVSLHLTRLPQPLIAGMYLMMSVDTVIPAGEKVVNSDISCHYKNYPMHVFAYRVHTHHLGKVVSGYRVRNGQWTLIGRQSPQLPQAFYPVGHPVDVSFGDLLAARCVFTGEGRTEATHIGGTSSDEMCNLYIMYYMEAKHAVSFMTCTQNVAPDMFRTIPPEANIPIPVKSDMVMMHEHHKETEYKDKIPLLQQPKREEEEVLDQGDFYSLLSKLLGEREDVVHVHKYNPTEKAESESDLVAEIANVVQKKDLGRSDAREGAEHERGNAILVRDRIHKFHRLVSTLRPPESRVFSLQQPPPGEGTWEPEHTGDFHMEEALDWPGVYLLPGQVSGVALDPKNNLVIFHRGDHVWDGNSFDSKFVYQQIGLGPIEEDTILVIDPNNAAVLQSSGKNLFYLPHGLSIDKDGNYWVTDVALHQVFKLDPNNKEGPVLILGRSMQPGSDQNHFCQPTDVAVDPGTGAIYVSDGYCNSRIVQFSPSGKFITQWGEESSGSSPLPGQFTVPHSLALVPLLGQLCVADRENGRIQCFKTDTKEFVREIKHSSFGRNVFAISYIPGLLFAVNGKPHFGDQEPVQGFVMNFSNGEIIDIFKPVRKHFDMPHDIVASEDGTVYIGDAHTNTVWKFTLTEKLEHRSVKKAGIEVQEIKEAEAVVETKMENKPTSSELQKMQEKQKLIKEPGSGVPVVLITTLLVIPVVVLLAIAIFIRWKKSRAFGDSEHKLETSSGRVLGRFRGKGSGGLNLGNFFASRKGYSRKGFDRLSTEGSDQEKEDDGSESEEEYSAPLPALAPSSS
Description: Competitive inhibition of PAM in human DMS53 cells using as(R)-Tyr-(S)-Val-Gly as substrate after 2 hrs by HPLC analysis. The format is cell-based, DMS-53.

Test [2] has as its target T1, Peptidyl-glycine alpha-amidating monooxygenase. Briefly: Competitive inhibition of secreted PAM in human DMS53 cell culture medium using as(R)-Tyr-(S)-Val-Gly as substrate after 2 hrs by HPLC analysis. The arrangement: species or system DMS-53.

For the compound `CC(=O)NCC(=O)OCC(=O)O`, the IC50 (as a rule, the concentration that inhibits the measured activity by half) in test [1] was 210 µM; in test [2] it was 1800 µM.

As for `C[C@H](N)C(=O)N[C@@H](Cc1ccccc1)C(=O)OCC(=O)O`, the IC50 in test [1] was 350 µM; in test [2] it was 370 µM.

In the case of `N[C@@H](Cc1ccccc1)C(=O)OCC(=O)O`, the IC50 in test [1] was found to be 1100 µM; in test [2] it was 1600 µM.

Take `CC(=O)N[C@@H](CC(C)C)C(=O)NCC(=O)OCC(=O)O`: the IC50 in test [1] amounted to 120 µM; in test [2], 200 µM.

Take `O=C(O)COC(=O)[C@@H]1CCCN1`: the IC50 in test [1] stood at 600 µM; in test [2] it was 500 µM.
